Reference: paper PMC10607377, “The PKG Inhibitor CN238 Affords Functional Protection of Photoreceptors and Ganglion Cells against Retinal Degeneration” (International Journal of Molecular Sciences, 2023)

Key:
PKG2 = target: T1, PKG2 (Homo sapiens, UniProt Q13237); assay: coupled spectrophotometric kinase activation assay; type: biochemical
T1 construct: gene PRKG2; FLAG-Strep-Strep-tagged human PKG2 (1–762) WT
T1 sequence (Q13237 1-762): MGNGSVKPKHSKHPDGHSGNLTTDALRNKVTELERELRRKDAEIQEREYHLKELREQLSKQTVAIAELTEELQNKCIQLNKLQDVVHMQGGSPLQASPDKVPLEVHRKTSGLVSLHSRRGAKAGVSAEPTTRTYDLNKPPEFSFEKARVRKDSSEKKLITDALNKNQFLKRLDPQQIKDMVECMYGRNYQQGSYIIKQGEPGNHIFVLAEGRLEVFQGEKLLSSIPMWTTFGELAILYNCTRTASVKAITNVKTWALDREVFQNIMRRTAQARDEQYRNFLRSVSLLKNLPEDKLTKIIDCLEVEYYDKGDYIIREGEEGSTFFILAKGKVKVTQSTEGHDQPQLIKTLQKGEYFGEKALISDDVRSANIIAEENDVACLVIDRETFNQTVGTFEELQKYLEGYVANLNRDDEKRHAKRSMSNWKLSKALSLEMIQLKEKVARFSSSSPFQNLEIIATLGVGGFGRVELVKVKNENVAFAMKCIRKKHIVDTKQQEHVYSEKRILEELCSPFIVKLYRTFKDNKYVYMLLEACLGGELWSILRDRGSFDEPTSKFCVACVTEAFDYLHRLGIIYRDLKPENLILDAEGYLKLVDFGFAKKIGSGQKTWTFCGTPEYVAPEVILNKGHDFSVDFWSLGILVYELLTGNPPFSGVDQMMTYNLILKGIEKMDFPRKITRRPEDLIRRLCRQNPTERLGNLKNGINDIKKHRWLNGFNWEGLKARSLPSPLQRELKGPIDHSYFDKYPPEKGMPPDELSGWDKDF

cone CNG channel (CNGA3) = target: T2, cone CNG channel (CNGA3) (Homo sapiens, UniProt Q16281+Q9NQW8); assay: inside-out patch-clamp, concentration-activation; type: cell-based
T2 construct: CNGA3:CNGB3 expressed in Xenopus oocytes; with CNGB3
T2 sequence (Q16281 1-694): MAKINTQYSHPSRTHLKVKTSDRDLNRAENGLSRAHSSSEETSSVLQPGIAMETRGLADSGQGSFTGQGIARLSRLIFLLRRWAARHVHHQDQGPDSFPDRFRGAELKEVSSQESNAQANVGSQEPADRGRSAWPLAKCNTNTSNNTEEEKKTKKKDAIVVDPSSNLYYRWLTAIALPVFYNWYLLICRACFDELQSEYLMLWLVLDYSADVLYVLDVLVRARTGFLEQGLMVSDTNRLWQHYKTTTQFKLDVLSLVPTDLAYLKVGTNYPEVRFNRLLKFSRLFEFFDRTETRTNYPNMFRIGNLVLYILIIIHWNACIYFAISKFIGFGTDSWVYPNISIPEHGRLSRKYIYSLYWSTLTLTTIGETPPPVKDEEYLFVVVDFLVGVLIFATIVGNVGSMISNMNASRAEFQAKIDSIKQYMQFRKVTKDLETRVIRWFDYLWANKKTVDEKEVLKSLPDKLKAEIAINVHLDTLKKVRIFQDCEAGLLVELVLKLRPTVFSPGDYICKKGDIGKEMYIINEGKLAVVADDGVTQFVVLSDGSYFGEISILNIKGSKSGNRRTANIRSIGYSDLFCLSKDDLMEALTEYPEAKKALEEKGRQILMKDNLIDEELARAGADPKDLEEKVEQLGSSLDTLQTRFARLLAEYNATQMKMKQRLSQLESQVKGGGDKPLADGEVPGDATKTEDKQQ
T2 sequence (Q9NQW8 1-809): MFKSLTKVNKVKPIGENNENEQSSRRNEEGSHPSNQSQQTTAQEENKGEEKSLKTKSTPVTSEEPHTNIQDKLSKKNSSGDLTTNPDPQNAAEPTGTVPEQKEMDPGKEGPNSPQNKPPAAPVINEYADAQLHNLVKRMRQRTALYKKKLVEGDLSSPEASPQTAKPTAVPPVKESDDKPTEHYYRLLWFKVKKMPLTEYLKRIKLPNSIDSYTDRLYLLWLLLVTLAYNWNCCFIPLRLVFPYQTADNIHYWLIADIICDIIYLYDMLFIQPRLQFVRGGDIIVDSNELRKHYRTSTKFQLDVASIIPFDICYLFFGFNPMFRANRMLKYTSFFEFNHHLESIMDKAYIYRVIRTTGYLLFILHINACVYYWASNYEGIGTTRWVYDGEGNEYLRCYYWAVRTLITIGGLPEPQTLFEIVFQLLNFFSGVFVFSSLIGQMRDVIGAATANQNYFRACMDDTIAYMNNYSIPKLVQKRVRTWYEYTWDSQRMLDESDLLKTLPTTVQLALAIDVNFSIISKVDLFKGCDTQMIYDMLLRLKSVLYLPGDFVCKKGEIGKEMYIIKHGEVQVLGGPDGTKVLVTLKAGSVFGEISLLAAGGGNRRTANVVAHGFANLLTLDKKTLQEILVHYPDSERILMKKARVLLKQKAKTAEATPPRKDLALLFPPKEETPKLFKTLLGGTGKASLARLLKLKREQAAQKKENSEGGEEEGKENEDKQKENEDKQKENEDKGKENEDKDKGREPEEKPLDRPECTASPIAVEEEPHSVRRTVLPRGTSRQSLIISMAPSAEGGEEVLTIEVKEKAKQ

PKG1β = target: T3, PKG1β (Homo sapiens, UniProt Q13976)
T3 construct: gene PRKG1
T3 sequence (Q13976 4-686 isoform Q13976-2): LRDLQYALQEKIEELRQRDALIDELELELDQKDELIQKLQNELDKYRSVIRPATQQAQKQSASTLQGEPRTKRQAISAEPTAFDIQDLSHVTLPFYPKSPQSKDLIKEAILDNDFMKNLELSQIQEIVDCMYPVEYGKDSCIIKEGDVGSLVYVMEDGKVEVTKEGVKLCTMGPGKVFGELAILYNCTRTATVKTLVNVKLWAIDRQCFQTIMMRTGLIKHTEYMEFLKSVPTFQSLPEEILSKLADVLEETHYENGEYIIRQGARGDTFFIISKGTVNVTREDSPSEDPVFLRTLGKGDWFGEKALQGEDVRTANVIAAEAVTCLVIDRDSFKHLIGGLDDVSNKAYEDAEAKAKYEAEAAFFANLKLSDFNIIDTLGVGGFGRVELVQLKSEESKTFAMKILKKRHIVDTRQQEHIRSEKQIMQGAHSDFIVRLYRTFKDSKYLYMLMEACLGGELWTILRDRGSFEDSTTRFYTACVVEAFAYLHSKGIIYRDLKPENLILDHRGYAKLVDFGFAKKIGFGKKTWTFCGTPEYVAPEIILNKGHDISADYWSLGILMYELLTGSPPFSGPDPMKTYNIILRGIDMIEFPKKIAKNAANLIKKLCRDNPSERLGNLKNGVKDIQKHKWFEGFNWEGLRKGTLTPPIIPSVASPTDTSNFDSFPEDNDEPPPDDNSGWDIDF

Nc1nc2c(ncn2[C@@H]2O[C@@H]3COP(=O)(O)O[C@H]3[C@H]2O)c(=O)[nH]1 [cGMP]
coupled spectrophotometric kinase activation assay (PKG2): Activation with cGMP was determined for all PKG isoforms
EC50 (cone CNG channel (CNGA3)): 10.7 µM
coupled spectrophotometric kinase activation assay (PKG1β): Activation with cGMP was determined for all PKG isoforms
